The text below walks through data of ChEMBL document CHEMBL3046465, “A facile synthesis of new 3,3-disubstituted phthalides of pharmacological interest” (Med Chem Res, 2013).

Assay [1] deals with Mycobacterium intracellulare. The experiment in a line: Antibacterial activity against Mycobacterium intracellulare ATCC 23068 assessed as growth inhibition after 70 to 74 hr by Alamar blue assay. In kind it is functional, organism-based. On the technique in general: Resazurin is reduced to fluorescent resorufin, in cell work by metabolically active cells.
For assay [2], the system named is Candida albicans. Put plainly: Antifungal activity against Candida albicans ATCC 90028 assessed as growth inhibition after 46 to 50 hr by CLSI broth dilution method. In kind it is functional. For orientation: In broth dilution the organism is exposed to a series of concentrations in liquid medium.
The test system of assay [3] is Cryptococcus neoformans. The experiment in a line: Antifungal activity against Cryptococcus neoformans ATCC 90113 assessed as growth inhibition after 70 to 74 hr by CLSI broth dilution method. In kind it is functional.
Assay [4] deals with Pseudomonas aeruginosa. The experiment in a line: Antibacterial activity against Pseudomonas aeruginosa ATCC 27853 assessed as growth inhibition after 16 to 20 hr by CLSI broth dilution method. Type of assay: functional.
Assay [5] has as its system Pseudomonas aeruginosa. The experiment in a line: Antibacterial activity against Pseudomonas aeruginosa ATCC 27853 assessed as growth inhibition after 16 to 20 hr by optical density measurement.
The test system of assay [6] is Aspergillus fumigatus. The experiment in a line: Antifungal activity against Aspergillus fumigatus ATCC 204305 assessed as growth inhibition after 46 to 50 hr by CLSI broth dilution method. In kind it is functional.
Assay [7] deals with Staphylococcus aureus. Put plainly: Antibacterial activity against Staphylococcus aureus ATCC 29213 assessed as growth inhibition after 16 to 20 hr by Alamar blue assay. In kind it is functional, organism-based.
Assay [8] concerns Cryptococcus neoformans. The experiment in a line: Antifungal activity against Cryptococcus neoformans ATCC 90113 assessed as growth inhibition after 70 to 74 hr by Alamar blue assay. Type of assay: functional, organism-based.
Assay [9] concerns Staphylococcus aureus. The experiment in a line: Antibacterial activity against methicillin-resistant Staphylococcus aureus ATCC 33591 assessed as growth inhibition after 16 to 20 hr by CLSI broth dilution method. In kind it is functional.
The subject of assay [10] is Nakaseomyces glabratus. Put plainly: Antifungal activity against Candida glabrata ATCC 90030 assessed as growth inhibition after 46 to 50 hr by optical density measurement.
Assay [11] has as its system Staphylococcus aureus. The experiment in a line: Antibacterial activity against Staphylococcus aureus ATCC 29213 assessed as growth inhibition after 16 to 20 hr by CLSI broth dilution method. Type of assay: functional.
The subject of assay [12] is Pichia kudriavzevii. Put plainly: Antifungal activity against Pichia kudriavzevii ATCC 6258 assessed as growth inhibition after 46 to 50 hr by CLSI broth dilution method. In kind it is functional.
Assay [13] relates to Mycobacterium intracellulare. Put plainly: Antibacterial activity against Mycobacterium intracellulare ATCC 23068 assessed as growth inhibition after 70 to 74 hr by CLSI broth dilution method. Type of assay: functional.
The test system of assay [14] is Aspergillus fumigatus. The experiment in a line: Antifungal activity against Aspergillus fumigatus ATCC 204305 assessed as growth inhibition after 46 to 50 hr by Alamar blue assay. In kind it is functional, organism-based.
For assay [15], the system named is Nakaseomyces glabratus. Put plainly: Antifungal activity against Candida glabrata ATCC 90030 assessed as growth inhibition after 46 to 50 hr by CLSI broth dilution method. Type of assay: functional.
Assay [16] has as its system Staphylococcus aureus. Put plainly: Antibacterial activity against methicillin-resistant Staphylococcus aureus ATCC 33591 assessed as growth inhibition after 16 to 20 hr by Alamar blue assay. In kind it is functional, organism-based.
In assay [17] the test system is Escherichia coli. The experiment in a line: Antibacterial activity against Escherichia coli ATCC 35218 assessed as growth inhibition after 16 to 20 hr by CLSI broth dilution method. Type of assay: functional.
Assay [18] relates to Escherichia coli. Put plainly: Antibacterial activity against Escherichia coli ATCC 35218 assessed as growth inhibition after 16 to 20 hr by optical density measurement.
Assay [19] has as its system Candida albicans. The experiment in a line: Antifungal activity against Candida albicans ATCC 90028 assessed as growth inhibition after 46 to 50 hr by Alamar blue assay. In kind it is functional, organism-based.
Assay [20] relates to Pichia kudriavzevii. Put plainly: Antifungal activity against Pichia kudriavzevii ATCC 6258 assessed as growth inhibition after 46 to 50 hr by optical density measurement.
In assay [21] the test system is Escherichia coli. The experiment in a line: Antibacterial activity against Escherichia coli ATCC 35218 assessed as growth inhibition after 16 to 20 hr by optical density method.

Values after ≈ are worked out from the molar mass of the structure shown.

In general, IC50 refers to the concentration that inhibits the measured activity by half. What is called MIC is the least concentration at which growth counts as inhibited. For the compound `CC(C)c1ccc(C2(c3ccc(O)c(O)c3O)OC(=O)c3ccccc32)cc1[N+](=O)[O-]` (configuration not stated), the IC50 was above 200 µg/mL in assay [1]; 163 µg/mL (≈ 386 µM) in the assay on Pseudomonas aeruginosa [5]; 42.3 µg/mL (≈ 100 µM) with Staphylococcus aureus [7]; above 200 µg/mL in the assay with Cryptococcus neoformans [8]; 21.3 µg/mL (≈ 50.6 µM) in the assay on Nakaseomyces glabratus [10]; above 200 µg/mL in the assay with Aspergillus fumigatus [14]. The concentration for half-maximal inhibition (IC50) was 45.7 µg/mL (≈ 108 µM) in the assay on Staphylococcus aureus [16], above 200 µg/mL in the assay with Escherichia coli [18], 98.9 µg/mL (≈ 235 µM) in the assay with Candida albicans [19] and 88.7 µg/mL (≈ 210 µM) in the assay with Pichia kudriavzevii [20]. The minimal inhibitory concentration (MIC) is above 200 µg/mL in the assay with Candida albicans [2]; above 200 µg/mL in the assay with Cryptococcus neoformans [3]; above 200 µg/mL in the assay with Pseudomonas aeruginosa [4]; above 200 µg/mL in the assay with Aspergillus fumigatus [6]; 133 µg/mL (≈ 316 µM) in the assay on Staphylococcus aureus [9]; 100 µg/mL (≈ 237 µM) in the assay on Staphylococcus aureus [11]. In addition, the minimal inhibitory concentration (MIC) in the assay on Pichia kudriavzevii [12] is above 200 µg/mL; in [13] it was above 200 µg/mL; in the assay on Nakaseomyces glabratus [15] it was 83.3 µg/mL (≈ 198 µM); in the assay with Escherichia coli [17], above 200 µg/mL.
For the compound `CC(C)c1ccc(C2(c3ccc(O)c(O)c3)OC(=O)c3ccccc32)cc1` (configuration not stated), the IC50 in assay [1] was above 200 µg/mL; with Pseudomonas aeruginosa [5], 61 µg/mL (≈ 169 µM); in the assay with Staphylococcus aureus [7] it was 4.96 µg/mL (≈ 13.8 µM); with Cryptococcus neoformans [8], 137 µg/mL (≈ 381 µM); with Nakaseomyces glabratus [10] it was 45.8 µg/mL (≈ 127 µM); with Aspergillus fumigatus [14], 53.2 µg/mL (≈ 148 µM). Besides, the IC50 in the assay with Staphylococcus aureus [16] is 6.81 µg/mL (≈ 18.9 µM); in the assay with Escherichia coli [18] it was above 200 µg/mL; in the assay with Candida albicans [19], 172 µg/mL (≈ 478 µM); in the assay with Pichia kudriavzevii [20], 15.5 µg/mL (≈ 42.9 µM). The MIC was above 200 µg/mL with Candida albicans [2]; above 200 µg/mL in the assay with Cryptococcus neoformans [3]; above 200 µg/mL with Pseudomonas aeruginosa [4]; above 200 µg/mL in the assay with Aspergillus fumigatus [6]; 12.5 µg/mL (≈ 34.7 µM) with Staphylococcus aureus [9]; 18.8 µg/mL (≈ 52 µM) in the assay with Staphylococcus aureus [11]. Besides, the minimum inhibitory concentration (MIC) with Pichia kudriavzevii [12] is above 200 µg/mL; in assay [13], above 200 µg/mL; in the assay with Nakaseomyces glabratus [15], 200 µg/mL (≈ 555 µM); in the assay with Escherichia coli [17], above 200 µg/mL.
On to `C[C@@H]1[C@H](O)[C@@H](C)/C=C/C=C/C=C/C=C/C=C/C=C/C=C/[C@H](O[C@@H]2O[C@H](C)[C@@H](O)[C@H](N)[C@@H]2O)C[C@@H]2O[C@](O)(C[C@@H](O)C[C@@H](O)[C@H](O)CC[C@@H](O)C[C@@H](O)CC(=O)O[C@H]1C)C[C@H](O)[C@H]2C(=O)O` [AMPHOTERICIN B], for which the MIC was found to be 0.52 µg/mL (≈ 0.563 µM) with Candida albicans [2]; 0.63 µg/mL (≈ 0.682 µM) in the assay on Cryptococcus neoformans [3]; 1.25 µg/mL (≈ 1.35 µM) with Aspergillus fumigatus [6]; 1.25 µg/mL (≈ 1.35 µM) in the assay with Pichia kudriavzevii [12]; 0.63 µg/mL (≈ 0.682 µM) with Nakaseomyces glabratus [15]. For the same compound, the half-inhibitory concentration (IC50) was determined as 0.32 µg/mL (≈ 0.346 µM) in the assay on Cryptococcus neoformans [8]; 0.28 µg/mL (≈ 0.303 µM) in the assay on Nakaseomyces glabratus [10]; 0.67 µg/mL (≈ 0.725 µM) in the assay with Aspergillus fumigatus [14]; 0.2 µg/mL (≈ 0.216 µM) with Candida albicans [19]; 0.56 µg/mL (≈ 0.606 µM) in the assay with Pichia kudriavzevii [20].
With `CC(C)c1ccc(C2(c3ccc(O)c(O)c3O)OC(=O)c3ccccc32)cc1` (configuration not stated), the IC50 in assay [1] is above 200 µg/mL; in the assay on Pseudomonas aeruginosa [5], 116 µg/mL (≈ 309 µM); in the assay with Staphylococcus aureus [7], 18.4 µg/mL (≈ 49 µM); in the assay with Cryptococcus neoformans [8], above 200 µg/mL; in the assay on Nakaseomyces glabratus [10], 17.5 µg/mL (≈ 46.5 µM); in the assay on Escherichia coli [21], 170 µg/mL (≈ 451 µM). Besides, the IC50 was above 200 µg/mL with Aspergillus fumigatus [14], 18.8 µg/mL (≈ 49.9 µM) in the assay on Staphylococcus aureus [16], 65 µg/mL (≈ 173 µM) in the assay with Candida albicans [19] and 25.5 µg/mL (≈ 67.7 µM) in the assay on Pichia kudriavzevii [20]. For the same compound, the MIC was above 200 µg/mL with Candida albicans [2]; above 200 µg/mL in the assay with Cryptococcus neoformans [3]; above 200 µg/mL with Pseudomonas aeruginosa [4]; above 200 µg/mL in the assay on Aspergillus fumigatus [6]; 25 µg/mL (≈ 66.4 µM) with Staphylococcus aureus [9]; 25 µg/mL (≈ 66.4 µM) in the assay with Staphylococcus aureus [11]. The minimum inhibitory concentration (MIC) (in the assay with Pichia kudriavzevii [12]; in [13]; in the assay with Nakaseomyces glabratus [15]; in the assay on Escherichia coli [17]) was above 200 µg/mL throughout.
On to `O=C(O)c1cn(C2CC2)c2cc(N3CCNCC3)c(F)cc2c1=O` [CIPROFLOXACIN], for which the IC50 worked out at 0.32 µg/mL (≈ 0.966 µM) in [1] and 0.005 µg/mL (≈ 0.0151 µM) with Escherichia coli [18].
Regarding `CC(C)c1ccc(C2(c3ccc(O)c(O)c3)OC(=O)c3ccccc32)cc1[N+](=O)[O-]` (configuration not stated), the half-inhibitory concentration (IC50) in assay [1] is above 200 µg/mL; in the assay with Pseudomonas aeruginosa [5] it was above 200 µg/mL; in the assay on Staphylococcus aureus [7], 26.4 µg/mL (≈ 65 µM); in the assay with Cryptococcus neoformans [8], above 200 µg/mL; in the assay with Nakaseomyces glabratus [10], 76.3 µg/mL (≈ 188 µM); in the assay with Aspergillus fumigatus [14], above 200 µg/mL. In addition, the 50% inhibitory concentration (IC50) in the assay with Staphylococcus aureus [16] is 27.8 µg/mL (≈ 68.5 µM); with Escherichia coli [18] it was above 200 µg/mL; in the assay on Candida albicans [19], above 200 µg/mL; with Pichia kudriavzevii [20], above 200 µg/mL. For the same compound, the MIC with Candida albicans [2] is above 100 µg/mL; in the assay with Cryptococcus neoformans [3] it was above 100 µg/mL; with Pseudomonas aeruginosa [4], above 200 µg/mL; with Aspergillus fumigatus [6], above 100 µg/mL; in the assay with Staphylococcus aureus [9], 50 µg/mL (≈ 123 µM); in the assay on Staphylococcus aureus [11], 50 µg/mL (≈ 123 µM). Also, the MIC in the assay with Pichia kudriavzevii [12] was above 100 µg/mL; in [13] it was above 200 µg/mL; in the assay with Nakaseomyces glabratus [15], above 100 µg/mL; in the assay on Escherichia coli [17] it was above 200 µg/mL.
